According to patent publication US20080009418A1, “Selective Inhibitors” (Alchemia LTD., priority 2004, published 2008):

Experiments:
Details in all cases: compound at 10 μM
[1] = biological target: T1, Human opioid (ORL1) (Homo sapiens, UniProt P41146); test: Radioligand binding, human opioid ORL1 membranes, FlashPlate, [125I]-Nociceptin
T1 construct: purchased Perkin Elmer Biosignal
In short: (§1)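 Cloned human receptor membranes were coated onto FlashPlate wells and incubated with radioligand and compound (added from a 0.5 mM DMSO daughter plate) for 1 hour at room temperature in the dark. Scintillation counting gave percent inhibition, with DMSO defining total and reference ligand defining non-specific binding.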

[2] = biological target: T2, Human neuropeptide Y (NPY-Y1) (Homo sapiens, UniProt P25929); test: Radioligand binding, human neuropeptide Y NPY-Y1 membranes, FlashPlate, [125I]-PYY
T2 construct: purchased Perkin Elmer Biosignal
T2 sequence (P25929 1-384): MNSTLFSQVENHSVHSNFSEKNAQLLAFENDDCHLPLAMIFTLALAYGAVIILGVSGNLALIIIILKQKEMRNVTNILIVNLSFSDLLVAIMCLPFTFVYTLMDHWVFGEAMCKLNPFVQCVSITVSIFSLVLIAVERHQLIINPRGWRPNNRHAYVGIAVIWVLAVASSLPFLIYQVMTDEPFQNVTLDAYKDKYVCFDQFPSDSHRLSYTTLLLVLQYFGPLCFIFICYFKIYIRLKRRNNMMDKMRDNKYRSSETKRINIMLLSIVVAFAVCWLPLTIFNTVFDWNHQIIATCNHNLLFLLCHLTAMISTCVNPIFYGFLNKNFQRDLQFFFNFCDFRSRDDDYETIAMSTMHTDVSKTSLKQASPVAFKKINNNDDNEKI
In short: as §1

[3] = biological target: T3, Human μ-opioid (MOP) (Homo sapiens, UniProt P35372); test: Radioligand binding, human μ-opioid (MOP) membranes, FlashPlate, [3H]-Naloxone
T3 construct: purchased Perkin Elmer Biosignal
T3 sequence (P35372 whole entry): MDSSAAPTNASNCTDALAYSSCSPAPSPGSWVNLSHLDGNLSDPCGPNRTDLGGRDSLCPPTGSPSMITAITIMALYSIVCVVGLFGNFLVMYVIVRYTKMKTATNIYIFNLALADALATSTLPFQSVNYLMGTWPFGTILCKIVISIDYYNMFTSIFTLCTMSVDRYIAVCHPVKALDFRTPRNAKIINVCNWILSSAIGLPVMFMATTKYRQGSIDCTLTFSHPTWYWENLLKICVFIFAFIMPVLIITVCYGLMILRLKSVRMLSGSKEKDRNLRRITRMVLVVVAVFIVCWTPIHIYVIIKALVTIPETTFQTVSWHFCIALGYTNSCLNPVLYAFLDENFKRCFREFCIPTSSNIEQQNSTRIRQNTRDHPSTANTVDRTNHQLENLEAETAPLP
In short: as §1

[4] = biological target: T4, Human neurokinin (NK1) (Homo sapiens, UniProt P25103); test: Radioligand binding, human neurokinin NK1 membranes, filtration, [125I]-Substance P
T4 construct: purchased Perkin Elmer Biosignal
T4 sequence (P25103 whole entry): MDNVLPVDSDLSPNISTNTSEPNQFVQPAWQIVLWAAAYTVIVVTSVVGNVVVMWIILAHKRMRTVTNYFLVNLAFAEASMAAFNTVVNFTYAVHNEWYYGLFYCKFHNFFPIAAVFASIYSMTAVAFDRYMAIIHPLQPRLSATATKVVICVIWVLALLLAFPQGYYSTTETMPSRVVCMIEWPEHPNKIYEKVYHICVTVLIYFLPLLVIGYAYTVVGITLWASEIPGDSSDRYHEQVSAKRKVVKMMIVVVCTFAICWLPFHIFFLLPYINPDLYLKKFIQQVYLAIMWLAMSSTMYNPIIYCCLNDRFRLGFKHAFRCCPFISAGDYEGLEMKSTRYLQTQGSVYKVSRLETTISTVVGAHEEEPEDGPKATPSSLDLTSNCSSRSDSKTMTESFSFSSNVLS
In short: (§2)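 Percent inhibition of radioligand binding measured on recombinant human membranes: NK1 with [125I]-Substance P, KOP with [3H]-Diprenorphine. Incubation 1 h at room temperature, then harvest onto 0.3% PEI-soaked filters, cold Tris-HCl pH 7.4 washes and scintillation counting; non-specific binding from reference ligand wells.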

[5] = biological target: T5, Human melanin-concentrating hormone (MCH1) (Homo sapiens, UniProt Q99705); test: Radioligand binding, human melanin-concentrating hormone MCH1 membranes, FlashPlate, [125I]-S36057
T5 construct: purchased Perkin Elmer Biosignal
T5 sequence (Q99705 whole entry): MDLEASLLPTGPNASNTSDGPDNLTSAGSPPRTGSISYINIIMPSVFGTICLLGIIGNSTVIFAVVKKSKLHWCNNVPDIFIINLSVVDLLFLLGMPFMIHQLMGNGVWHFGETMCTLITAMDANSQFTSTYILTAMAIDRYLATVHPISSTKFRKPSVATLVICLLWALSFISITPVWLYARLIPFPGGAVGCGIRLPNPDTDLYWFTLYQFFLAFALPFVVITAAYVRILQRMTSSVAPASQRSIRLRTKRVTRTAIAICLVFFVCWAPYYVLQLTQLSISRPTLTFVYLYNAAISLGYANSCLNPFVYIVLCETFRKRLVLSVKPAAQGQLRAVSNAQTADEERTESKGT
In short: as §1

[6] = biological target: T6, Mouse urotensin (mUR2) (Mus musculus, UniProt Q8VIH9); test: Radioligand binding, mouse urotensin mUR2 membranes, FlashPlate, [125I]-Urotensin II
T6 construct: purchased Perkin Elmer Biosignal
T6 sequence (Q8VIH9 1-385): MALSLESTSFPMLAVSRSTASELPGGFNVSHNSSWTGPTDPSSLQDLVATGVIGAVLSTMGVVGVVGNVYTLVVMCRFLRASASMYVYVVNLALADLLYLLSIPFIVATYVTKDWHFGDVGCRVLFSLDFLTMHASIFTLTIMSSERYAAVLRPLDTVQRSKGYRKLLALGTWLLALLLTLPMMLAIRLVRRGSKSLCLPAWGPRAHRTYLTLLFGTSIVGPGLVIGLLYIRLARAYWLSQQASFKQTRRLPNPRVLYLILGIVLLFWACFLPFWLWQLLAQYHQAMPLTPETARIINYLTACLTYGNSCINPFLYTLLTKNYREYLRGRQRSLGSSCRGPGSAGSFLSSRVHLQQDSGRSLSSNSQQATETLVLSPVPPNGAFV
In short: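 Cloned mouse urotensin (mUR2) receptor membranes from Perkin Elmer Biosignal were immobilized in FlashPlate microplates using a proprietary coating. Each well got 19.5 μl buffer, then 0.5 μl of DMSO, reference ligand, or compound. Adding 5 μl of [125I]-Urotensin II, diluted to 5× final concentration in binding buffer, started binding. Plates were sealed with TopSeal-A and incubated 1 hour at room temperature in the dark. Wells were counted for 30 seconds each on a TopCount after a 60-second delay, and percentage inhibition was calculated.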

[7] = biological target: T7, Human δ-opioid (DOP) (Homo sapiens, UniProt P41143); test: Radioligand binding, human δ-opioid (DOP) membranes, FlashPlate, [3H]-Bremazocine
T7 construct: purchased Perkin Elmer Biosignal
T7 sequence (P41143 whole entry): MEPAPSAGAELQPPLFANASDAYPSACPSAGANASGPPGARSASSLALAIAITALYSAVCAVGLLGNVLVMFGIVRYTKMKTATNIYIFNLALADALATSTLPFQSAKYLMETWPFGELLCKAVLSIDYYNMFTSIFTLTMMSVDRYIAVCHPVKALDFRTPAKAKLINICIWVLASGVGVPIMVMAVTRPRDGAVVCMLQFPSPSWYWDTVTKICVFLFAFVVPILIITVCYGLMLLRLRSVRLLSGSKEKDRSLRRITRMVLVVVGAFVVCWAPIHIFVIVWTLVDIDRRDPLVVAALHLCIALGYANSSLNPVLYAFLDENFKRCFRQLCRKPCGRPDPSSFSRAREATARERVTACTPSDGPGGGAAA
In short: as §1

[8] = biological target: T8, Human Melanocortin (MC4) (Homo sapiens, UniProt P32245); test: Radioligand binding, human melanocortin MC4 membranes, FlashPlate, [125I]-NDP-αMSH
T8 construct: purchased Perkin Elmer Biosignal
T8 sequence (P32245 whole entry): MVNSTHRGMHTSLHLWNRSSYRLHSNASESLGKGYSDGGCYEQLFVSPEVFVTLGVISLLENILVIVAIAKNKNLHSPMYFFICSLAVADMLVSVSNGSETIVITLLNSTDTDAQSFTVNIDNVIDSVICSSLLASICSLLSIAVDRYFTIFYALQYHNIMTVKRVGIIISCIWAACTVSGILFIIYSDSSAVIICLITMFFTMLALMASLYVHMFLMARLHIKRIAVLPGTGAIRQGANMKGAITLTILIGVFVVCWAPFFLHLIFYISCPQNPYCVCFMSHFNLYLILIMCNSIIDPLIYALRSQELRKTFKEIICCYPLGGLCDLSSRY
In short: as §1

[9] = biological target: T9, Human κ-Opioid (KOP) (Homo sapiens, UniProt P41145); test: Radioligand binding, human κ-opioid (KOP) membranes, filtration, [3H]-Diprenorphine
T9 construct: purchased Perkin Elmer Biosignal
T9 sequence (P41145 whole entry): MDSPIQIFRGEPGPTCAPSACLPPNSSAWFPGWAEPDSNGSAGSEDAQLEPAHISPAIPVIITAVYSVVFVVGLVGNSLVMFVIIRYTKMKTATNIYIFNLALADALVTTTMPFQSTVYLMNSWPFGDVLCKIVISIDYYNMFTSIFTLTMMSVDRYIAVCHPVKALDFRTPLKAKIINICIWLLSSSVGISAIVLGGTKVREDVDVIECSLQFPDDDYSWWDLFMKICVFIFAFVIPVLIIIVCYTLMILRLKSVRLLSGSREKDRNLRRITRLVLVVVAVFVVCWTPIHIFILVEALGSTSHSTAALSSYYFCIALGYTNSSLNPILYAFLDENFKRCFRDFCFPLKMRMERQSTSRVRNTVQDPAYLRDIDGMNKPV
In short: as §2

[10] = biological target: T10, Human melanocortin (MC5) (Homo sapiens, UniProt P33032); test: Radioligand binding, human melanocortin MC5 membranes, FlashPlate, [125I]-NDP-αMSH
T10 construct: purchased Perkin Elmer Biosignal
T10 sequence (P33032 whole entry): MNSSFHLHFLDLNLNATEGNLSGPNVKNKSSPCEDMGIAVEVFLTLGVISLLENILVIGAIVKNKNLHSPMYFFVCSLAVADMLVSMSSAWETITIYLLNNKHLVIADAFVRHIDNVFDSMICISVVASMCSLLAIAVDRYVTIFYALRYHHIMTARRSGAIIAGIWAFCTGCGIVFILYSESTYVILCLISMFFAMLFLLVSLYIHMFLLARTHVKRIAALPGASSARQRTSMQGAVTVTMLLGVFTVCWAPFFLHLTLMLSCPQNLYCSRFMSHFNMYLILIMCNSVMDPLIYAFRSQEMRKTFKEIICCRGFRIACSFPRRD
In short: as §1

[11] = biological target: T11, Human Melanocortin (MC3) (Homo sapiens, UniProt P41968); test: Radioligand binding, human melanocortin MC3 membranes, FlashPlate, [125I]-NDP-αMSH
T11 construct: purchased Perkin Elmer Biosignal
T11 sequence (P41968 whole entry): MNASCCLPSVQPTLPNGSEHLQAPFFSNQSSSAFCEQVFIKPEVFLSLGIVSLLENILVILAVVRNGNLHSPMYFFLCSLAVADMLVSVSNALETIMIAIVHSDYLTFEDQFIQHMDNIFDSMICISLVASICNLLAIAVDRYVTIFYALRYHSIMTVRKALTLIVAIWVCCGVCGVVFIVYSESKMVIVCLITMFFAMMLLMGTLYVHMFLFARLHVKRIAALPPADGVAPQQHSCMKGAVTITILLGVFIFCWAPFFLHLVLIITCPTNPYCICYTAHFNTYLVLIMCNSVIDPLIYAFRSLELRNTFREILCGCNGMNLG
In short: as §1

[12] = [125I]-Urotensin II, FlashPlate

T1 sequence (P41146 whole entry): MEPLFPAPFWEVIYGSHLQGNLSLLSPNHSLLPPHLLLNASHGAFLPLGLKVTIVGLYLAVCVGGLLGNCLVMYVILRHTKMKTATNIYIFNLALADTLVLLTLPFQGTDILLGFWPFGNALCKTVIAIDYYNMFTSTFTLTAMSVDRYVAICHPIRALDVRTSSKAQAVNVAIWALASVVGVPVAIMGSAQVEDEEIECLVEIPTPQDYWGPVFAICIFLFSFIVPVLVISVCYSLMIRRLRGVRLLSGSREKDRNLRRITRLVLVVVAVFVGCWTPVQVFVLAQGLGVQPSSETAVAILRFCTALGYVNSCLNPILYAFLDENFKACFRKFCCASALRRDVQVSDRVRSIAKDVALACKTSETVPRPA

With `CO[C@H]1[C@H](O)[C@@H](COCc2ccc3ccccc3c2)OC(OCCc2ccccc2)[C@@H]1NC(=O)CNC(=N)N` (stereo partly shown) [compound 113] the “A10 radioligand binding, percentage inhibition” value ([1]; [125I]-Nociceptin) was “+ (“+” indicates greater than 50% inhibition at 10 μM)”, the “A9 radioligand binding, percentage inhibition” value ([2]; [125I]-PYY) was “− (“−” indicates less than 50% inhibition at 10 μM)” and the “A7 radioligand binding, percentage inhibition” value ([3]; [3H]-Naloxone) was “− (“−” indicates less than 50% inhibition at 10 μM)”. The “A8 radioligand binding, percentage inhibition” value ([4]; [125I]-Substance P) was “+ (“+” indicates greater than 50% inhibition at 10 μM)”, the “A6 radioligand binding, percentage inhibition” value ([5]; [125I]-S36057) was “− (“−” indicates less than 50% inhibition at 10 μM)” and the “A11 radioligand binding, percentage inhibition” value ([6]; [125I]-Urotensin II) was “− (“−” indicates less than 50% inhibition at 10 μM)”. For the same compound, the “A1 radioligand binding, percentage inhibition” value ([7]; [3H]-Bremazocine) was “− (“−” indicates less than 50% inhibition at 10 μM)”, the “A4 radioligand binding, percentage inhibition” value ([8]; [125I]-NDP-αMSH) was “+ (“+” indicates greater than 50% inhibition at 10 μM)” and the “A2 radioligand binding, percentage inhibition” value ([9]; [3H]-Diprenorphine) was “− (“−” indicates less than 50% inhibition at 10 μM)”. For the same compound, the “A5 radioligand binding, percentage inhibition” value ([10]; [125I]-NDP-αMSH) was “+ (“+” indicates greater than 50% inhibition at 10 μM)” and the “A3 radioligand binding, percentage inhibition” value ([11]; [125I]-NDP-αMSH) was “− (“−” indicates less than 50% inhibition at 10 μM)”.

In the case of `CO[C@H]1[C@H](O)[C@@H](COCc2ccc(-c3ccccc3)cc2)OC(OCc2ccccc2)[C@@H]1NC(=O)CCCNC(=N)N` (stereo partly shown) [compound 85], the “A10 radioligand binding inhibition” value ([1]; human ORL1 membranes) is reported as “+ (“+” indicates greater than 50% inhibition at 10 μM)”, the “A9 radioligand binding inhibition” value ([2]; human NPY-Y1 membranes) is reported as “− (“−” indicates less than 50% inhibition at 10 μM)” and the “A7 radioligand binding inhibition” value ([3]; human μ-opioid (MOP) membranes) is reported as “+ (“+” indicates greater than 50% inhibition at 10 μM)”. The “A8 radioligand binding inhibition” value ([4]; human neurokinin NK1 membranes) was “+ (“+” indicates greater than 50% inhibition at 10 μM)”, the “A6 radioligand binding inhibition” value ([5]; human MCH1 membranes) was “+ (“+” indicates greater than 50% inhibition at 10 μM)” and the “A11 radioligand binding inhibition” value ([6]; mouse urotensin mUR2 membranes) was “− (“−” indicates less than 50% inhibition at 10 μM)”. The “A1 radioligand binding inhibition” value ([7]; human δ-opioid (DOP) membranes) was “− (“−” indicates less than 50% inhibition at 10 μM)”, the “A4 radioligand binding inhibition” value ([8]; human melanocortin MC4 membranes) was “+ (“+” indicates greater than 50% inhibition at 10 μM)” and the “A2 radioligand binding inhibition” value ([9]; human κ-opioid (KOP) membranes) was “− (“−” indicates less than 50% inhibition at 10 μM)”. The “A5 radioligand binding inhibition” value ([10]; human melanocortin MC5 membranes) was “+ (“+” indicates greater than 50% inhibition at 10 μM)” and the “A3 radioligand binding inhibition” value ([11]; human melanocortin MC3 membranes) was “+ (“+” indicates greater than 50% inhibition at 10 μM)”.

In the case of `COCC1OC(OCc2ccc3ccccc3c2)C(NC(=O)CCN)C(OCc2ccc3ccccc3c2)C1O` (stereo not shown) [compound 248], the “A10: inhibition of radioligand binding” value ([1]; [125I]-Nociceptin, FlashPlate) is reported as “− (“−” indicates less than 50% inhibition at 10 μM)”, the “A9: inhibition of radioligand binding” value ([2]; [125I]-PYY, FlashPlate) is reported as “− (“−” indicates less than 50% inhibition at 10 μM)” and the “A7: inhibition of radioligand binding” value ([3]; [3H]-Naloxone, FlashPlate) is reported as “− (“−” indicates less than 50% inhibition at 10 μM)”. The “A8: inhibition of radioligand binding” value ([4]; [125I]-Substance P, filtration) was “+ (“+” indicates greater than 50% inhibition at 10 μM)”, the “A6: inhibition of radioligand binding” value ([5]; [125I]-S36057, FlashPlate) was “− (“−” indicates less than 50% inhibition at 10 μM)” and the “A11: inhibition of radioligand binding” value [6, 12] was “− (“−” indicates less than 50% inhibition at 10 μM)”. The “A1: inhibition of radioligand binding” value ([7]; [3H]-Bremazocine, FlashPlate) was “− (“−” indicates less than 50% inhibition at 10 μM)”, the “A4: inhibition of radioligand binding” value ([8]; [125I]-NDP-αMSH, FlashPlate) was “− (“−” indicates less than 50% inhibition at 10 μM)” and the “A2: inhibition of radioligand binding” value ([9]; [3H]-Diprenorphine, filtration) was “− (“−” indicates less than 50% inhibition at 10 μM)”. The “A5: inhibition of radioligand binding” value ([10]; [125I]-NDP-αMSH, FlashPlate) was “+ (“+” indicates greater than 50% inhibition at 10 μM)” and the “A3: inhibition of radioligand binding” value ([11]; [125I]-NDP-αMSH, FlashPlate) was “− (“−” indicates less than 50% inhibition at 10 μM)”.

For `N=C(N)NCC(=O)NC1C(OCc2ccc(Cl)cc2)OC(COCc2ccc(Cl)cc2)C(O)C1OCc1ccc(Cl)cc1` (stereo not shown) [compound 419], the “A10: inhibition of radioligand binding” value ([1]; [125I]-Nociceptin, human ORL1 membranes) was “+ (“+” indicates greater than 50% inhibition at 10 μM)”, the “A9: inhibition of radioligand binding” value ([2]; [125I]-PYY, human NPY-Y1 membranes) was “− (“−” indicates less than 50% inhibition at 10 μM)” and the “A7: inhibition of radioligand binding” value ([3]; [3H]-Naloxone, human MOP membranes) was “− (“−” indicates less than 50% inhibition at 10 μM)”. For the same compound, the “A8: inhibition of radioligand binding” value ([4]; [125I]-Substance P, human NK1 membranes) was “+ (“+” indicates greater than 50% inhibition at 10 μM)”, the “A6: inhibition of radioligand binding” value ([5]; [125I]-S36057, human MCH1 membranes) was “+ (“+” indicates greater than 50% inhibition at 10 μM)” and the “A11: inhibition of radioligand binding” value ([6]; [125I]-Urotensin II, mouse mUR2 membranes) was “− (“−” indicates less than 50% inhibition at 10 μM)”. For the same compound, the “A1: inhibition of radioligand binding” value ([7]; [3H]-Bremazocine, human DOP membranes) was “− (“−” indicates less than 50% inhibition at 10 μM)”, the “A4: inhibition of radioligand binding” value ([8]; [125I]-NDP-αMSH, human MC4 membranes) was “+ (“+” indicates greater than 50% inhibition at 10 μM)” and the “A2: inhibition of radioligand binding” value ([9]; [3H]-Diprenorphine, human KOP membranes) was “− (“−” indicates less than 50% inhibition at 10 μM)”. The “A5: inhibition of radioligand binding” value ([10]; [125I]-NDP-αMSH, human MC5 membranes) was “+ (“+” indicates greater than 50% inhibition at 10 μM)” and the “A3: inhibition of radioligand binding” value ([11]; [125I]-NDP-αMSH, human MC3 membranes) was “+ (“+” indicates greater than 50% inhibition at 10 μM)”.

`COCC1OC(OCc2ccc(Cl)cc2)C(NC(=O)CCNC(=N)N)C(OCc2ccc(-c3ccccc3)cc2)C1O` (stereo not shown) [compound 206] was tested, and the “A10: inhibition of radioligand binding” value ([1]; [125I]-Nociceptin, FlashPlate) was “− (“−” indicates less than 50% inhibition at 10 μM)”, the “A9: inhibition of radioligand binding” value ([2]; [125I]-PYY, FlashPlate) was “− (“−” indicates less than 50% inhibition at 10 μM)” and the “A7: inhibition of radioligand binding” value ([3]; [3H]-Naloxone, FlashPlate) was “− (“−” indicates less than 50% inhibition at 10 μM)”. The “A8: inhibition of radioligand binding” value ([4]; [125I]-Substance P, filtration) was “+ (“+” indicates greater than 50% inhibition at 10 μM)”, the “A6: inhibition of radioligand binding” value ([5]; [125I]-S36057, FlashPlate) was “+ (“+” indicates greater than 50% inhibition at 10 μM)” and the “A11: inhibition of radioligand binding” value [6, 12] was “− (“−” indicates less than 50% inhibition at 10 μM)”. For the same compound, the “A1: inhibition of radioligand binding” value ([7]; [3H]-Bremazocine, FlashPlate) was “− (“−” indicates less than 50% inhibition at 10 μM)”, the “A4: inhibition of radioligand binding” value ([8]; [125I]-NDP-αMSH, FlashPlate) was “+ (“+” indicates greater than 50% inhibition at 10 μM)” and the “A2: inhibition of radioligand binding” value ([9]; [3H]-Diprenorphine, filtration) was “− (“−” indicates less than 50% inhibition at 10 μM)”. The “A5: inhibition of radioligand binding” value ([10]; [125I]-NDP-αMSH, FlashPlate) was “+ (“+” indicates greater than 50% inhibition at 10 μM)” and the “A3: inhibition of radioligand binding” value ([11]; [125I]-NDP-αMSH, FlashPlate) was “− (“−” indicates less than 50% inhibition at 10 μM)”.
